Among the data in ChEMBL document CHEMBL5725537, “Pyrazolo-pyrrolidin-4-one derivatives and their use in the treatment of disease” (2017) are IC50 values, retold here.

pIC50: −log10 of the molar value.

The target of test [1] is Bromodomain-containing protein 3 (Homo sapiens, UniProt Q15059). In words: (§1) TR-FRET In-Vitro Binding Assays for BRD2, BRD3, and BRD4: All assays were performed in 384 well microtiter plates. Each assay plate contained 8-point serial dilutions for 40 test compounds, plus 16 high- and 16 low controls. Liquid handling and incubation steps were done on an Innovadyne Nanodrop Express equipped with a robotic arm (Thermo CatX, Perkin Elmer/Caliper Twister II) and an incubator (Liconic STX40, Thermo Cytomat 2C450). The assay plates were prepared by addition of 50 nl per well of compound solution in 90% DMSO HummingBird nanodispenser (Zinsser Analytic). The assay was started by stepwise addition of 4.5 μl per well of bromo domain protein (50 mM HEPES, pH 7.5, 0.005% Tween20, 0.1% BSA, 50 mM NaCl, 45 nM His-Brd2(60-472) or 45 nM His-Brd3(20-477) or 45 nM His-Brd4(44-477) all proteins produced in-house) and 4.5 μl per well of peptide solution (50 mM HEPES, pH 7.5, 0.005% Tween20, 0.1% BSA, 50 mM NaCl, 60 nM acetyl-histone H4 (AcK 5, 8, 12, 16) (Biosyntan GmbH)). Reactions were incubated at 30° C. for 35 minutes. Subsequently 4.5 μl per well detection mix (50 mM HEPES, pH 7.5, 0.005% Tween20, 0.1% BSA, 50 mM NaCl, 3 nM Eu-labeled anti-His6 antibody, 21 nM streptavidin-allophycocyanin) were added. After 35 minutes incubation at 30° C., plates were measured in a Perkin Elmer EnVision multilabel reader. Concentrations causing 50% inhibition (1050) values were determined from percent inhibition values at different compound concentrations by non-linear regression analysis. A general note: Time-resolved FRET reads energy transfer from a long-lived donor to a nearby acceptor.
Chain of Bromodomain-containing protein 3 (Q15059 whole entry, the tested form may be a part): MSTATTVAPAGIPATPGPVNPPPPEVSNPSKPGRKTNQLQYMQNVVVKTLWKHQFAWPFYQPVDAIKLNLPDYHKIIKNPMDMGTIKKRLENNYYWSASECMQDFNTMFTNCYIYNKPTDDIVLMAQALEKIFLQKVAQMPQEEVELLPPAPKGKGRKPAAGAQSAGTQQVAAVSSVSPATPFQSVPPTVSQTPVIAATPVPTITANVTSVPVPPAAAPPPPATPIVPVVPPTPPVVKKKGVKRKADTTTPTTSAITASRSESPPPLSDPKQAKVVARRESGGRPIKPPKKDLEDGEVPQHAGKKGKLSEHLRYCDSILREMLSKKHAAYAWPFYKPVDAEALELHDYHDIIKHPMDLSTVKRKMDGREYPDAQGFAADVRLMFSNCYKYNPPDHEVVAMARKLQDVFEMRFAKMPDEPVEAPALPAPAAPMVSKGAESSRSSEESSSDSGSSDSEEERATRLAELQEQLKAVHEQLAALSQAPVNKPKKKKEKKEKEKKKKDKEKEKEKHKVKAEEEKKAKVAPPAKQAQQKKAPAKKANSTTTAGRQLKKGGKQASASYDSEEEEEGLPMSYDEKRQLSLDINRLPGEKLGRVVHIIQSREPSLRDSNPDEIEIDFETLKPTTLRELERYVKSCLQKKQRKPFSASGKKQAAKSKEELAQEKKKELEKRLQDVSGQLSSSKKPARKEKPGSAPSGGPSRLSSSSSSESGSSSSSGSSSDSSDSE

Test [2] addresses Bromodomain-containing protein 4 (Homo sapiens, UniProt O60885). The description is as §1.
Test [3] has as its target CREB-binding protein (Homo sapiens, UniProt Q92793). The experiment in a line: AlphaScreen In-Vitro Binding Assay for CREBBP: In order to assess bromodomain selectivity, we set up a binding assay using the bromodomain encoded by the CREBBP gene. […] Reactions were incubated at 30° C. for 35 minutes. Subsequently 4.5 μl per well detection mix (50 mM HEPES, pH 7.5, 0.005% Tween20, 0.02% BSA, 150 mM NaCl, 45 μg/ml Ni-chelate acceptor beads, 45 μg/ml streptavidin-donor beads) (Perkin Elmer)) were added. After 60 minutes incubation at room temperature, plates were measured in a Perkin Elmer EnVision multilabel reader. IC50 values were determined from percent inhibition values at different compound concentrations by non-linear regression analysis. (In Alpha technology, singlet oxygen from a donor bead excites a nearby acceptor bead.)

The target in test [4] is Bromodomain-containing protein 2 (Homo sapiens, UniProt P25440). Described as §1.
Chain of Bromodomain-containing protein 2 (P25440 whole entry): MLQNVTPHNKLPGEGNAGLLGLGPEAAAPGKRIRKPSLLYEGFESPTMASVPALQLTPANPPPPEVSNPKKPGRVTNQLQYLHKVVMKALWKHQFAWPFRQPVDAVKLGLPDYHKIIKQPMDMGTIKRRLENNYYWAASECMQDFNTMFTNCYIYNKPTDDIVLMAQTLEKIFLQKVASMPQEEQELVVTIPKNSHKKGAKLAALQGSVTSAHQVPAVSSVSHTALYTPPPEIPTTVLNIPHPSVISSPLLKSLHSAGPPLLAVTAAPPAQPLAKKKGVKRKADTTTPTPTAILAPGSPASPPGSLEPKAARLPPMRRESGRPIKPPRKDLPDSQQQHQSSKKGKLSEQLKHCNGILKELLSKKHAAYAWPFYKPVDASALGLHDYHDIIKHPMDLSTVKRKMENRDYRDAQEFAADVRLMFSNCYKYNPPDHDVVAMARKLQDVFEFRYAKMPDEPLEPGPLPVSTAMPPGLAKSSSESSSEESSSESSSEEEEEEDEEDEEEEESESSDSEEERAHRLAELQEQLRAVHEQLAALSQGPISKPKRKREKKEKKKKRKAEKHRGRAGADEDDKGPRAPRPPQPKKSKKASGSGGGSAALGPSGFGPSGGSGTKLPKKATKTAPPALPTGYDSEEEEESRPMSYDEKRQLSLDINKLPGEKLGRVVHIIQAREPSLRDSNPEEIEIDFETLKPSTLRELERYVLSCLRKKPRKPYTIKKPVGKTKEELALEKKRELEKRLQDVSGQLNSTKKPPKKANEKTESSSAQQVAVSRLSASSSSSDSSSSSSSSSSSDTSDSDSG

Chain of CREB-binding protein (Q92793 whole entry): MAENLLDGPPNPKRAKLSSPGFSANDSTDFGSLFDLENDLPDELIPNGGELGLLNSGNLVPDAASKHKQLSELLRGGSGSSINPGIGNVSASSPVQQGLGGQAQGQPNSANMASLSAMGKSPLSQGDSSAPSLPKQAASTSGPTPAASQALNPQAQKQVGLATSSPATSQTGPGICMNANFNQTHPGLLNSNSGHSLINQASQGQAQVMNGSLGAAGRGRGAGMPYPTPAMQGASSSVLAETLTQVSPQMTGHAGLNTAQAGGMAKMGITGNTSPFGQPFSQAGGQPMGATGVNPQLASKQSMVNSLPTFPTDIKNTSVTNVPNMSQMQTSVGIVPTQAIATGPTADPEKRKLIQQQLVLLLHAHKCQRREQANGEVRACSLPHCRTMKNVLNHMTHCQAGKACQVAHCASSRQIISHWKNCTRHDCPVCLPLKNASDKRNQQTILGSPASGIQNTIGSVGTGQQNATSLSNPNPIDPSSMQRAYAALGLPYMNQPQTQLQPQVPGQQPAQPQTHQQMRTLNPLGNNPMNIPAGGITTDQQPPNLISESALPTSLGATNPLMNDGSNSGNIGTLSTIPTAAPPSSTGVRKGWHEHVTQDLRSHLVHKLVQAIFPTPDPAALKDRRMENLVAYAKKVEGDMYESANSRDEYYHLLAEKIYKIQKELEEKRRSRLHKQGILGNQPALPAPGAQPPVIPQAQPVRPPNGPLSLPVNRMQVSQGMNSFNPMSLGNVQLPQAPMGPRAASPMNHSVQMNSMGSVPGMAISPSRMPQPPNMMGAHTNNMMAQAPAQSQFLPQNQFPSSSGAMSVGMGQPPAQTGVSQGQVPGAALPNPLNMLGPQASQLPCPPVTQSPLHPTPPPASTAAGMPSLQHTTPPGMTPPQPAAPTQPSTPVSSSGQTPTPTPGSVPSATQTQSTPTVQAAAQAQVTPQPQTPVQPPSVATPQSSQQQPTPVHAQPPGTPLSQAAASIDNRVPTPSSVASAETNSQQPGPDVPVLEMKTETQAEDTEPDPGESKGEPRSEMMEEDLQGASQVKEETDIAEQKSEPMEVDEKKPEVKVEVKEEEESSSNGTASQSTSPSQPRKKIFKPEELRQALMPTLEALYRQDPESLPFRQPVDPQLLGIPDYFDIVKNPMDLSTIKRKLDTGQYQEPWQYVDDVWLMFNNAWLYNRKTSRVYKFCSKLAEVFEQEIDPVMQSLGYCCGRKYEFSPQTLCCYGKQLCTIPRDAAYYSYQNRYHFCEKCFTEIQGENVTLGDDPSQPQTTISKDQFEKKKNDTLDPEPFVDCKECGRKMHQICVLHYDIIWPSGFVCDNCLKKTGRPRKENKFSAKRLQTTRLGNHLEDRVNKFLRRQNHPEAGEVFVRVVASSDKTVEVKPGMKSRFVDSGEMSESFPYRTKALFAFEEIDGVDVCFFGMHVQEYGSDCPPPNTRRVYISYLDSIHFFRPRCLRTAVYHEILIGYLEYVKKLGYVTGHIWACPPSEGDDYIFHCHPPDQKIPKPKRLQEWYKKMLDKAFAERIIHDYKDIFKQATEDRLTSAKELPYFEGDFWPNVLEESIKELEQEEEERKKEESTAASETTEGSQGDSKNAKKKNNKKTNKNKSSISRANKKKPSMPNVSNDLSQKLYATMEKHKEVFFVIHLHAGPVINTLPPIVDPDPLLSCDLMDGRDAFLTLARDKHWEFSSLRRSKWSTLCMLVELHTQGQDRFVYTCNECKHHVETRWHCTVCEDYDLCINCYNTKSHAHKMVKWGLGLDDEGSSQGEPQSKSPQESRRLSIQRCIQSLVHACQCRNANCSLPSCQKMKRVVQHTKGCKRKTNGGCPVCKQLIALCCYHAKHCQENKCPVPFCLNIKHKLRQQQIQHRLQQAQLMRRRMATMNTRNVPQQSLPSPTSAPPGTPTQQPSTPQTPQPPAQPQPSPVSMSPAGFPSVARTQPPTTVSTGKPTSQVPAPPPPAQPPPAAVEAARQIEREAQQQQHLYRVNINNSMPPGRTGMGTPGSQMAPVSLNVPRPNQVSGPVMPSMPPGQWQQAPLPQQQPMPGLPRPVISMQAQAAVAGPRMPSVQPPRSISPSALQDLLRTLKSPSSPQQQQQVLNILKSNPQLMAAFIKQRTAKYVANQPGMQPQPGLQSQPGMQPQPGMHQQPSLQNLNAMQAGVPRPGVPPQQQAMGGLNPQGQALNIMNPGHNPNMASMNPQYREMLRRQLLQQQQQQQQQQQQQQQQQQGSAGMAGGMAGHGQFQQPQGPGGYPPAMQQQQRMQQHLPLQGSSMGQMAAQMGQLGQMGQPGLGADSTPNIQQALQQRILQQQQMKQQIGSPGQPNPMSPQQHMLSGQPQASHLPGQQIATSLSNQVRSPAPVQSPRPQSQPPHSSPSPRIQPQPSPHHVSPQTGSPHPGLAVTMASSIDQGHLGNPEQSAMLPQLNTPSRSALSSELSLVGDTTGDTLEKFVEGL

As a reminder, the pIC50 is the IC50 on a negative log10 scale, so that one unit is a factor of ten. Regarding `CCOc1ncccc1-n1nc(C)c2c1C(c1ccc(Cl)cc1)N(c1cc(C)c(=O)n(C)c1)C2=O` (stereo unspecified), the pIC50 in test [1] was 7.21; in test [2], 7.10; in test [3], 5.51.
As to `COc1ncccc1-n1nc(C)c2c1C(c1ccc(Cl)cc1)N(c1cc(C)c(=O)n(C)c1)C2=O` (stereo unspecified), the pIC50 was 7.11 in test [4], 7.07 in test [2] and 5.40 in test [3].
